# Source: ChEMBL document CHEMBL3044730, “Synthesis, antimycobacterial, antiviral, antimicrobial activities, and QSAR studies of nicotinic acid benzylidene hydrazide derivatives” (Med Chem Res, 2012)
# Test system: Coxsackievirus B4
# Assay: Antiviral activity against Human coxsackievirus B4 infected human HeLa cells assessed as inhibition of virus-induced cytopathicity by microscopy
# Assay type: functional, organism-based
# Details: Enterovirus B
row,SMILES,EC50 [µg/mL]
1,O=C(N/N=C/c1ccc([N+](=O)[O-])cc1)c1cccnc1,> 0.16
2,O=C(N/N=C/c1cccc(O)c1)c1cccnc1,> 100
3,COc1ccc(OC)c(/C=N/NC(=O)c2cccnc2)c1,> 100
4,O=C(N/N=C/c1ccc(O)cc1)c1cccnc1,> 100

# Test system: Human respirovirus 3
# Assay: Antiviral activity against Human parainfluenza virus 3 infected Vero cells assessed as inhibition of virus-induced cytopathicity by microscopy
# Assay type: functional, organism-based
# Details: Human respirovirus 3, Vero
row,SMILES,EC50 [µg/mL]
1,O=C(N/N=C/c1ccc([N+](=O)[O-])cc1)c1cccnc1,> 0.8
2,O=C(N/N=C/c1cccc(O)c1)c1cccnc1,> 100
3,COc1ccc(OC)c(/C=N/NC(=O)c2cccnc2)c1,> 100
4,O=C(N/N=C/c1ccc(O)cc1)c1cccnc1,> 100

# Test system: Candida albicans
# Assay: Antimicrobial activity against Candida albicans after 7 days by serial dilution method
# Assay type: functional
# Parameters: unit not given here
# Details: not given
row,SMILES,-logMIC
1,O=C(N/N=C/c1ccc([N+](=O)[O-])cc1)c1cccnc1,1.33
2,O=C(N/N=C/c1cccc(O)c1)c1cccnc1,1.29
3,COc1ccc(OC)c(/C=N/NC(=O)c2cccnc2)c1,1.96
4,O=C(N/N=C/c1ccc(O)cc1)c1cccnc1,1.59

# Test system: Vaccinia virus
# Assay: Antiviral activity against Vaccinia virus infected human HEL cells assessed as inhibition of virus-induced cytopathicity by microscopy
# Assay type: functional, organism-based
# Details: Orthopoxvirus vaccinia
row,SMILES,EC50 [µg/mL]
1,O=C(N/N=C/c1ccc([N+](=O)[O-])cc1)c1cccnc1,> 0.8
2,O=C(N/N=C/c1cccc(O)c1)c1cccnc1,> 100
3,COc1ccc(OC)c(/C=N/NC(=O)c2cccnc2)c1,> 20
4,O=C(N/N=C/c1ccc(O)cc1)c1cccnc1,> 100

# Test system: Human herpesvirus 3 strain Oka vaccine
# Assay: Antiviral activity against Human herpesvirus 3 strain Oka vaccine OKA 07-1 (Varicella zoster virus) infected in human HEL cells assessed as inhibition of virus-induced cytopathicity
# Assay type: functional, organism-based
# Details: Human alphaherpesvirus 3, OKA 07-1, HEL
row,SMILES,EC50 [µg/mL]
1,O=C(N/N=C/c1ccc([N+](=O)[O-])cc1)c1cccnc1,> 0.16
2,O=C(N/N=C/c1cccc(O)c1)c1cccnc1,> 100
3,COc1ccc(OC)c(/C=N/NC(=O)c2cccnc2)c1,> 20
4,O=C(N/N=C/c1ccc(O)cc1)c1cccnc1,54

# Test system: Candida albicans
# Assay: Antimicrobial activity against Candida albicans after 2 days by serial dilution method
# Assay type: functional
# Parameters: unit not given here
# Details: not given
row,SMILES,-logMIC
1,O=C(N/N=C/c1ccc([N+](=O)[O-])cc1)c1cccnc1,1.33
2,O=C(N/N=C/c1cccc(O)c1)c1cccnc1,1.28
3,COc1ccc(OC)c(/C=N/NC(=O)c2cccnc2)c1,1.36
4,O=C(N/N=C/c1ccc(O)cc1)c1cccnc1,1.28

# Test system: not listed separately
# Assay: Cytotoxicity against Homo sapiens (human) HEL cells assessed as alteration in cell morphology by microscopy
# Assay type: cell-based
# Details: not given
SMILES,CC50 [µg/mL],MCC [µg/mL]
O=C(N/N=C/c1ccc([N+](=O)[O-])cc1)c1cccnc1,< 0.16,≥ 0.8
O=C(N/N=C/c1cccc(O)c1)c1cccnc1,> 100,> 100
COc1ccc(OC)c(/C=N/NC(=O)c2cccnc2)c1,12,100
O=C(N/N=C/c1ccc(O)cc1)c1cccnc1,91,> 100

# Test system: Vesicular stomatitis virus
# Assay: Antiviral activity against Vesicular stomatitis virus infected human HeLa cells assessed as inhibition of virus-induced cytopathicity by microscopy
# Assay type: functional, organism-based
# Details: not given
row,SMILES,EC50 [µg/mL]
1,O=C(N/N=C/c1ccc([N+](=O)[O-])cc1)c1cccnc1,> 0.16
2,O=C(N/N=C/c1cccc(O)c1)c1cccnc1,> 100
3,COc1ccc(OC)c(/C=N/NC(=O)c2cccnc2)c1,> 100
4,O=C(N/N=C/c1ccc(O)cc1)c1cccnc1,> 100

# Test system: Staphylococcus aureus
# Assay: Antimicrobial activity against Staphylococcus aureus after 24 hr by serial dilution method
# Assay type: functional
# Parameters: unit not given here
# Details: not given
row,SMILES,-logMIC
1,O=C(N/N=C/c1ccc([N+](=O)[O-])cc1)c1cccnc1,1.03
2,O=C(N/N=C/c1cccc(O)c1)c1cccnc1,1.29
3,COc1ccc(OC)c(/C=N/NC(=O)c2cccnc2)c1,1.36
4,O=C(N/N=C/c1ccc(O)cc1)c1cccnc1,1.29

# Test system: Bacillus subtilis
# Assay: Antimicrobial activity against Bacillus subtilis after 24 hr by serial dilution method
# Assay type: functional
# Parameters: unit not given here
# Details: not given
row,SMILES,-logMIC
1,O=C(N/N=C/c1ccc([N+](=O)[O-])cc1)c1cccnc1,1.33
2,O=C(N/N=C/c1cccc(O)c1)c1cccnc1,1.29
3,COc1ccc(OC)c(/C=N/NC(=O)c2cccnc2)c1,1.36
4,O=C(N/N=C/c1ccc(O)cc1)c1cccnc1,1.29

# Test system: Respiratory syncytial virus
# Assay: Antiviral activity against Respiratory syncytial virus infected human HeLa cells assessed as inhibition of virus-induced cytopathicity by microscopy
# Assay type: functional, organism-based
# Details: not given
row,SMILES,EC50 [µg/mL]
1,O=C(N/N=C/c1ccc([N+](=O)[O-])cc1)c1cccnc1,> 0.16
2,O=C(N/N=C/c1cccc(O)c1)c1cccnc1,> 100
3,COc1ccc(OC)c(/C=N/NC(=O)c2cccnc2)c1,> 100
4,O=C(N/N=C/c1ccc(O)cc1)c1cccnc1,> 100

# Test system: not listed separately
# Assay: Cytotoxicity against Chlorocebus aethiops (African green monkey) Vero cells assessed as alteration in cell morphology by microscopy
# Assay type: cell-based
# Details: chlorocebus sabaeus
row,SMILES,MCC [µg/mL]
1,O=C(N/N=C/c1ccc([N+](=O)[O-])cc1)c1cccnc1,≥ 0.8
2,O=C(N/N=C/c1cccc(O)c1)c1cccnc1,> 100
3,COc1ccc(OC)c(/C=N/NC(=O)c2cccnc2)c1,> 100
4,O=C(N/N=C/c1ccc(O)cc1)c1cccnc1,> 100

# Test system: Human immunodeficiency virus 1
# Assay: Antiviral activity against Human immunodeficiency virus 1 IIIB infected MT4 cells assessed as inhibition of virus-induced cytopathic effect after 4 days by MTT assay
# Assay type: functional, organism-based
# Details: MT4, 96 h
row,SMILES,EC50 [µg/mL]
1,O=C(N/N=C/c1ccc([N+](=O)[O-])cc1)c1cccnc1,> 0.1
2,O=C(N/N=C/c1cccc(O)c1)c1cccnc1,> 98
3,COc1ccc(OC)c(/C=N/NC(=O)c2cccnc2)c1,> 13
4,O=C(N/N=C/c1ccc(O)cc1)c1cccnc1,> 104

# Test system: Human alphaherpesvirus 2
# Assay: Antiviral activity against Human herpesvirus 2 strain G infected human HEL cells assessed as inhibition of virus-induced cytopathicity by microscopy
# Assay type: functional, organism-based
# Details: Human alphaherpesvirus 2, strain G
row,SMILES,EC50 [µg/mL]
1,O=C(N/N=C/c1ccc([N+](=O)[O-])cc1)c1cccnc1,> 0.8
2,O=C(N/N=C/c1cccc(O)c1)c1cccnc1,> 100
3,COc1ccc(OC)c(/C=N/NC(=O)c2cccnc2)c1,> 20
4,O=C(N/N=C/c1ccc(O)cc1)c1cccnc1,> 100

# Test system: Human alphaherpesvirus 1
# Assay: Antiviral activity against Human herpesvirus 1 strain KOS infected in human HEL cells assessed as inhibition of virus-induced cytopathicity by microscopy by microscopy
# Assay type: functional, organism-based
# Details: Human alphaherpesvirus 1, KOS
row,SMILES,EC50 [µg/mL]
1,O=C(N/N=C/c1ccc([N+](=O)[O-])cc1)c1cccnc1,> 0.8
2,O=C(N/N=C/c1cccc(O)c1)c1cccnc1,> 100
3,COc1ccc(OC)c(/C=N/NC(=O)c2cccnc2)c1,> 20
4,O=C(N/N=C/c1ccc(O)cc1)c1cccnc1,> 100

# Test system: Punta Toro virus
# Assay: Antiviral activity against Punta Toro virus infected Vero cells assessed as inhibition of virus-induced cytopathicity
# Assay type: functional, organism-based
# Details: not given
row,SMILES,EC50 [µg/mL]
1,O=C(N/N=C/c1ccc([N+](=O)[O-])cc1)c1cccnc1,> 0.8
2,O=C(N/N=C/c1cccc(O)c1)c1cccnc1,> 100
3,COc1ccc(OC)c(/C=N/NC(=O)c2cccnc2)c1,> 100
4,O=C(N/N=C/c1ccc(O)cc1)c1cccnc1,> 100

# Test system: not listed separately
# Assay: Cytotoxicity against Homo sapiens (human) HeLa cells assessed as alteration in cell morphology by microscopy
# Assay type: cell-based
# Details: not given
row,SMILES,MCC [µg/mL]
1,O=C(N/N=C/c1ccc([N+](=O)[O-])cc1)c1cccnc1,0.8
2,O=C(N/N=C/c1cccc(O)c1)c1cccnc1,> 100
3,COc1ccc(OC)c(/C=N/NC(=O)c2cccnc2)c1,> 100
4,O=C(N/N=C/c1ccc(O)cc1)c1cccnc1,> 100

# Test system: Human alphaherpesvirus 1
# Assay: Antiviral activity against TK(-) aciclovir-resistant Human herpesvirus 1 strain KOS infected in human HEL cells assessed as inhibition of virus-induced cytopathicity
# Assay type: functional, organism-based
# Details: Human alphaherpesvirus 1, KOS
row,SMILES,EC50 [µg/mL]
1,O=C(N/N=C/c1ccc([N+](=O)[O-])cc1)c1cccnc1,> 0.8
2,O=C(N/N=C/c1cccc(O)c1)c1cccnc1,> 100
3,COc1ccc(OC)c(/C=N/NC(=O)c2cccnc2)c1,> 20
4,O=C(N/N=C/c1ccc(O)cc1)c1cccnc1,> 100

# Test system: Coxsackievirus B4
# Assay: Antiviral activity against Human coxsackievirus B4 infected Vero cells assessed as inhibition of virus-induced cytopathicity
# Assay type: functional, organism-based
# Details: Enterovirus B
row,SMILES,EC50 [µg/mL]
1,O=C(N/N=C/c1ccc([N+](=O)[O-])cc1)c1cccnc1,> 0.8
2,O=C(N/N=C/c1cccc(O)c1)c1cccnc1,> 100
3,COc1ccc(OC)c(/C=N/NC(=O)c2cccnc2)c1,> 100
4,O=C(N/N=C/c1ccc(O)cc1)c1cccnc1,> 100

# Test system: Human herpesvirus 5 strain AD169
# Assay: Antiviral activity against Human herpesvirus 5 strain AD169 Davis infected human HEL cells assessed as inhibition of virus-induced cytopathicity by microscopy
# Assay type: functional, organism-based
# Details: Human betaherpesvirus 5, Davis
row,SMILES,EC50 [µg/mL]
1,O=C(N/N=C/c1ccc([N+](=O)[O-])cc1)c1cccnc1,> 0.16
2,O=C(N/N=C/c1cccc(O)c1)c1cccnc1,> 100
3,COc1ccc(OC)c(/C=N/NC(=O)c2cccnc2)c1,> 20
4,O=C(N/N=C/c1ccc(O)cc1)c1cccnc1,> 100

# Test system: Escherichia coli
# Assay: Antimicrobial activity against Escherichia coli after 24 hr by serial dilution method
# Assay type: functional
# Parameters: unit not given here
# Details: not given
row,SMILES,-logMIC
1,O=C(N/N=C/c1ccc([N+](=O)[O-])cc1)c1cccnc1,1.94
2,O=C(N/N=C/c1cccc(O)c1)c1cccnc1,1.29
3,COc1ccc(OC)c(/C=N/NC(=O)c2cccnc2)c1,1.96
4,O=C(N/N=C/c1ccc(O)cc1)c1cccnc1,1.29

# Test system: Mammalian orthoreovirus 1
# Assay: Antiviral activity against Mammalian orthoreovirus 1 infected Vero cells assessed as inhibition of virus-induced cytopathicity by microscopy
# Assay type: functional, organism-based
# Details: Mammalian orthoreovirus 1, Vero
row,SMILES,EC50 [µg/mL]
1,O=C(N/N=C/c1ccc([N+](=O)[O-])cc1)c1cccnc1,> 0.8
2,O=C(N/N=C/c1cccc(O)c1)c1cccnc1,> 100
3,COc1ccc(OC)c(/C=N/NC(=O)c2cccnc2)c1,> 100
4,O=C(N/N=C/c1ccc(O)cc1)c1cccnc1,> 100

# Test system: Sindbis virus
# Assay: Antiviral activity against Sindbis virus infected Vero cells assessed as inhibition of virus-induced cytopathicity
# Assay type: functional, organism-based
# Details: not given
row,SMILES,EC50 [µg/mL]
1,O=C(N/N=C/c1ccc([N+](=O)[O-])cc1)c1cccnc1,> 0.8
2,O=C(N/N=C/c1cccc(O)c1)c1cccnc1,> 100
3,COc1ccc(OC)c(/C=N/NC(=O)c2cccnc2)c1,> 100
4,O=C(N/N=C/c1ccc(O)cc1)c1cccnc1,> 100

# Test system: not listed separately
# Assay: Cytotoxicity against Homo sapiens (human) MT4 cells after 4 days by MTT assay
# Assay type: cell-based
# Details: not given
row,SMILES,CC50 at 96 h [µg/mL]
1,O=C(N/N=C/c1ccc([N+](=O)[O-])cc1)c1cccnc1,0.1
2,O=C(N/N=C/c1cccc(O)c1)c1cccnc1,98
3,COc1ccc(OC)c(/C=N/NC(=O)c2cccnc2)c1,13
4,O=C(N/N=C/c1ccc(O)cc1)c1cccnc1,104

# Test system: Human immunodeficiency virus 2
# Assay: Antiviral activity against Human immunodeficiency virus type 2 (ISOLATE ROD) infected MT4 cells assessed as inhibition of virus-induced cytopathic effect after 4 days by MTT assay
# Assay type: functional, organism-based
# Details: Human immunodeficiency virus 2, ISOLATE ROD, MT4, 96 h
row,SMILES,EC50 [µg/mL]
1,O=C(N/N=C/c1ccc([N+](=O)[O-])cc1)c1cccnc1,> 0.1
2,O=C(N/N=C/c1cccc(O)c1)c1cccnc1,> 98
3,COc1ccc(OC)c(/C=N/NC(=O)c2cccnc2)c1,> 13
4,O=C(N/N=C/c1ccc(O)cc1)c1cccnc1,> 104

# Test system: Mycobacterium tuberculosis
# Assay: Antimicrobial activity against Mycobacterium tuberculosis by agar dilution method
# Assay type: functional
# Details: not given
row,SMILES,MIC [µg/mL]
1,O=C(N/N=C/c1ccc([N+](=O)[O-])cc1)c1cccnc1,> 25
2,O=C(N/N=C/c1cccc(O)c1)c1cccnc1,> 25
3,COc1ccc(OC)c(/C=N/NC(=O)c2cccnc2)c1,> 25
4,O=C(N/N=C/c1ccc(O)cc1)c1cccnc1,> 25
